Data published in US6593333B1, “Substituted anilino-quinazoline (or quinoline) compounds and use thereof” (Astrazeneca AB, priority 1998, dated 2003).

Columns and labels:
p38α = target: T1, p38α (Homo sapiens, UniProt Q16539); assay: In vitro enzyme assay, p38α kinase; type: biochemical
T1 construct: c-myc (N); 6His (N); made in house; host or cells: E. coli (PET vectors)
Method: The ability of compounds of the invention to inhibit the enzyme p38 kinase was assessed. Activity of particular test compounds against each of the p38α and p38β isoforms of the enzyme was determined.
Human recombinant MKK6 (GenBank Accesion Number G1209672) was isolated from Image clone 45578 (Genomics, 1996, 33, 151) and utilised to produce protein in the form of a GST fusion protein in a pGEX vector using analogous procedures to those disclosed by J. Han et al., Journal of Biological Chemistry, 1996, 271, 2886-2891. p38α (GenBank Accession Number G529039) and p38β (GenBank Accession Number G1469305) were isolated by PCR amplification of human lymphoblastoid cDNA (GenBank Accession Number GM1416) and human foetal brain cDNA [synthesised from mRNA (Clontech, catalogue no. 6525-1) using a Gibco superscript cDNA synthesis kit] respectively using oligonucleotides designed for the 5′ and 3′ ends of the human p38α and p38β genes using analogous procedures to those described by J. Han et al., Biochimica et Biophysica Acta, 1995, 1265, 224-227 and Y. Jiang et al., Journal of Biological Chemistry, 1996, 271, 17920-17926.
Both p38 protein isoforms were expressed in e coli in PET vectors. Human recombinant p38α and p38β isoforms were produced as 5′ c-myc, 6His tagged proteins. Both MKK6 and the p38 proteins were purified using standard protocols: the GST MKK6 was purified using a glutathione sepharose column and the p38 proteins were purified using nickel chelate columns.
The p38 enzymes were activated prior to use by incubation with MKK6 for 3 hours at 30° C. The unactivated coli-expressed MKK6 retained sufficient activity to fully activate both isoforms of p38. The activation incubate comprised p38α (10 μl of 10 mg/ml) or p38β (10 μl of 5 mg/ml) together with MKK6 (10 μl of 1 mg/ml), ‘Kinase buffer’ [100 μl; pH 7.4 buffer comprising Tris (50 mM), EGTA (0.1 mM), sodium orthovanadate (0.1 mM) and β-mercaptoethanol (0.1%)] and MgATP (30 μl of 50 mM Mg(OCOCH3)2 and 0.5 mM ATP). This produced enough activated p38 enzyme for 3 Microtiter plates.
Test compounds were solubilised in DMSO and 10 μl of a 1:10 diluted sample in ‘Kinase Buffer’ was added to a well in a Microtiter plate. […] The precipitated protein was phosphorylated by p38 kinase and test compounds were assessed for their ability to inhibit this phosphorylation. The plates were filtered using a Canberra Packard Unifilter and washed with 2% TCA, dried overnight and counted on a Top Count scintillation counter.
Test compounds were tested initially at a single dose and active compounds were retested to allow IC50 values to be determined.

[1] = system: TNFα production, human peripheral blood mononuclear cells; assay: PBMC test: inhibition of LPS-stimulated TNFα production; type: cell-based
Method: The ability of compounds of this invention to inhibit TNFα production was assessed by using human peripheral blood mononuclear cells which synthesise and secrete TNFα when stimulated with lipopolysaccharide.
Peripheral blood mononuclear cells (PBMC) were isolated from heparinised (10 units/ml heparin) human blood by density centrifugation (Lymphoprep™; Nycomed). Mononuclear cells were resuspended in culture medium [RPMI 1640 medium (Gibco) supplemented with 50 units/ml penicillin, 50 μg/ml streptomycin, 2 mM glutamine and 1% heat-inactivated human AB serum (Sigma H-1513)]. Compounds were solubilised in DMSO at a concentration of 50 mM, diluted 1:100 in culture medium and subsequently serial dilutions were made in culture medium containing 1% DMSO. PBMCs (2.4×10^5 cells in 160 μl culture medium) were incubated with 20 μl of varying concentrations of test compound (triplicate cultures) or 20 μl culture medium containing 1% DMSO (control wells) for 30 minutes at 37° C. in a humidified (5%CO2/95% air) incubator (Falcon 3072; 96 well flat-bottom tissue culture plates). 20 μl lipopolysaccharide [LPS E.Coli 0111:B4 (Sigma L-4130), final concentration 10 μg/ml] solubilised in culture medium was added to appropriate wells. 20 μl culture medium was added to “medium alone” control wells. Six “LPS alone” and four “medium alone” controls were included on each 96 well plate. Varying concentrations of a known TNFα inhibitor were included in each test, i.e. an inhibitor of the PDE Type IV enzyme (for example see Semmler, J. Wachtel. H and Endres, S., Int. J. Immunopharmac. (1993), 15(3), 409-413) or an inhibitor of pro TNFα convertase (for example, see McGeehan, G. M. et al. Nature (1994) 370, 558-561). Plates were incubated for 7 hours at 37° C. (humidified incubator) after which 100 μl of the supernatant was removed from each well and stored at −70° C. (96 well round-bottom plates; Corning 25850). TNFα levels were determined in each sample using a human TNFα ELISA (see WO92/10190 and Current Protocols in Molecular Biology, vol 2 by Frederick M. Ausbel et al., John Wiley and Sons Inc.).
% inhibition=(LPS alone−medium alone)−(test concentration−medium alone)/(LPS alone−medium alone)×100

T1 sequence (Q16539 whole entry): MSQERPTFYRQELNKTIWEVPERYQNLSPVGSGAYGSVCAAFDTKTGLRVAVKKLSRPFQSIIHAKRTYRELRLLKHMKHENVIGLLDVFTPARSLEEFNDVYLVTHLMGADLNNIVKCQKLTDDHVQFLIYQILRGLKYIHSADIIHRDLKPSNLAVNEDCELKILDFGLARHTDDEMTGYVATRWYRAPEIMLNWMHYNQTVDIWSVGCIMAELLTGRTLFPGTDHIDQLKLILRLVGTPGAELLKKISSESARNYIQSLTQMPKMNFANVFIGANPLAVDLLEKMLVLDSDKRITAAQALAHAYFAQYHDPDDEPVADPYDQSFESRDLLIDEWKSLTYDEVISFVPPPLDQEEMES

Row | IC50 (p38α) [nM] | IC50 [1] [µM] | Structure (SMILES)
1 | 1300 | 3.6 | COc1cc2ncnc(Nc3ccc(C)c(NC(=O)c4ccccc4)c3)c2cc1OC [Example 11]
2 | 3400 | 3.2 | CCC(=O)Nc1cc(Nc2ncnc3cc(OC)c(OC)cc23)ccc1F [Example 14]
3 | 200 | 5.2 | COc1cc2c(Nc3cc(NC(=O)c4cccc(N(C)C)c4)ccc3C)ncnc2c(OC)c1OC [Example 24, 4-[2-Methyl-5-(3-dimethylaminobenzamido)anilino]-6,7,8-trimethoxyquinazoline]
4 | 100 | 2 | COc1cc2c(Nc3cc(NC(=O)c4cccc(N(C)C)c4)ccc3C)ncnc2cc1OCCCN1CCOCC1 [Example 38]
